Several values for one entry are separate records, joined by “and”; a condition that tells them apart may be missing. Equal entries are not always repeated. Where two headings read alike, the source gives them in different places.
Columns and labels:
[1] = Pharmacokinetics after oral administration to control, G-ARF and C-ARF rats; format: in vivo, Sprague–Dawley rats; settings: for CL renal: read-out: CLR (time-averaged renal clearance); for bioavailability: read-out: F (absolute oral bioavailability)
Experimental: (§1) Rats were randomly divided into three groups: control, G-ARF, and C-ARF rats. Acute renal failure was induced in rats by intraperitoneal injection of gentamicin (100 mg/kg, dissolved in 0.9% NaCl-injectable solution) daily for 8 days or by a single intraperitoneal injection of cisplatin (7.5 mg/kg, dissolved in 0.9% NaCl-injectable solution), while control rats were injected with 0.9% NaCl-injectable solution only. […] BUN (Blood urea nitrogen) levels were measured in rats on the last day of induction using a BUN detection kit (Asan Pharmaceutical, Seoul, Korea). Rats with a urea nitrogen level of 36 mg/dL or higher were considered to be acute renal failure-induced and were selected for the study.
(§2) For oral and intravenous administration, pretreatment and surgical procedures were performed as previously reported. For oral study, the rats were restricted from eating food overnight but water was freely accessible. The next day, after anesthesia with ketamine at a dose of 100 mg/kg, polyethylene 50 tubes (Clay Adams, Parsippany, NJ, USA) was cannulated into the carotid artery for blood collection. For intravenous study, polyethylene 50 tubes were cannulated into the carotid artery and jugular vein for blood collection and drug administration, respectively. After surgery, rats were allowed to rest for 2–3 h to recover from anesthesia and were free in the individual metabolic cage during the experiment.
Blood samples (110 µL) were collected through the carotid artery at 0 (prior to drug administration), 5, 15, 30, 45, 60, 90, 120, 180, 240, 360, 480, 600, and 720 min. At 24 h after drug administration, urine and gastrointestinal tract samples were collected and handled similarly to those in the intravenous study.
(§3) A 50-μL aliquot of biological sample was mixed with 1 μL hydrocortisone (5 mg/mL); then, 20 μL of 20% ammonia solution was added, mixed with a vortex-mixer (Scientific Industries, Bohemia, NY, USA) for 30 s, and extracted with 750 µL ethyl acetate. The organic layer was collected, evaporated on a thermobath (Eyela, Tokyo, Japan) under a gentle stream of nitrogen gas at 40 °C and redissolved by adding 130 µL 20% acetonitrile, and 50 µL of each reconstituted sample was analyzed by HPLC [12, 22].
(§4) The reconstituted biological samples were filtered through a 0.45-µm filter (Millipore, Billerica, MA, USA) and analyzed with a reversed-phase column (C18; 25 cm × 4.6 mm, 5 µm; Young Jin Biochrom, Seongnam, Korea) using a UV detector at 287 nm. The mobile phase consisted of 10 mM ammonium acetate buffer (pH 5.0) and acetonitrile at a ratio of 69.5:30.5 (v/v) with a flow rate of 1.0 mL/min.
(§5) To estimate pharmacokinetic parameters such as terminal half-life, the apparent volume of distribution at steady state (Vss), area under plasma concentration-time curves from time zero to time infinity (AUC), mean residence time (MRT), and time-averaged total body (CL), and renal (CLR) and nonrenal (CLNR) clearances, standard methods were applied using noncompartmental analysis (WinNonlin, Pharsight Corporation, Mountain View, CA, USA). AUCs were calculated using the trapezoidal rule-extrapolation method. The peak plasma concentration (Cmax) and time that the plasma concentration was peak (Tmax) were directly confirmed from plasma concentration-time curves. To calculate the average values of clearances, terminal half-life, and Vss, the harmonic mean method was applied.

plasma proteins [2] = assay: Plasma protein binding by equilibrium dialysis; format: in vitro ADME; settings: plasma from control, G-ARF and C-ARF rats; data not shown
[3] = cited from earlier work
[4] = Pharmacokinetics after 1-min intravenous infusion to control, G-ARF and C-ARF rats; format: in vivo, Sprague–Dawley rats; settings: for CLR estimated from free (unbound to plasma proteins) fractions in plasma: based on 20.7% plasma protein binding; for MRT / clearance / CL renal / half-life / Vd / AUC: Sprague-Dawley, rat, plasma, iv, 10 mg/kg; for clearance: read-out: CL (time-averaged total body clearance); for CL renal: read-out: CLR (time-averaged renal clearance); for half-life: read-out: Terminal half-life; for Vd: read-out: Vss; for AUC: time zero to infinity
Experimental: as §1, §2
Blood samples (110 μL) were collected through the carotid artery at 0 (prior to drug infusion), 1 (at the end of drug infusion), 5, 15, 30, 45, 60, 90, 120, 180, 240, 360, 480, 600, and 720 min and were centrifuged at 8000 × g for 1 min. […] After collecting each blood sample, 0.3 mL of heparinized 0.9% NaCl-injectable solution (10 IU/mL) was immediately administered to the carotid artery to prevent blood clotting. At 24 h, the rat’s abdomen was open and the entire gastrointestinal tract was removed, transferred to a beaker with 50 mL of methanol, and cut into small pieces.
At 24 h after drug administration, urine samples were also collected. The metabolic cage was rinsed with 20 mL of distilled water, which was combined with the 24-h urine sample.
as §3, §4
as §5, with “curves.” for “curves. To calculate the average values of clearances, terminal half-life, and Vss, the harmonic mean method was applied.”

plasma proteins [5] = settings: equilibrium dialysis; cited from earlier work
[6] = intravenous doses over 20 mg/kg and oral doses over 50 mg/kg; cited from earlier work
[7] = Sprague-Dawley, rat, plasma, po, 20 mg/kg, C-ARF rats
[8] = Sprague-Dawley, rat, plasma, po, 20 mg/kg, G-ARF rats
[9] = Sprague-Dawley, rat, plasma, po, 20 mg/kg, control rats
[10] = control rats, oral 20 mg/kg, 20 mg/kg
[11] = hepatic microsomes of G-ARF rats, not significantly different

In the case of `C[C@@H]1CCN(C(=O)CC#N)C[C@@H]1N(C)c1ncnc2[nH]ccc12` [tofacitinib, Tofacitinib], the “Ae0–24 h (dose excreted in the 24-h urine)” value ([1]; C-ARF rats, oral 20 mg/kg) is reported as 1.16 ± 1.37 % of dose, the “decrease of Ae0–24 h versus control rats” value ([1]; C-ARF rats, oral 20 mg/kg) is reported as 81.3% and the “increase of AUC versus control rats” value ([1]; C-ARF rats, oral 20 mg/kg) is reported as 247%. The “increase of Cmax versus control rats” value ([1]; C-ARF rats, oral 20 mg/kg) was 141%, the “GI24 h (dose remaining in the gastrointestinal tract at 24 h)” value ([1]; C-ARF rats, oral 20 mg/kg, 20 mg/kg) was 0.505 % of dose and 0.505 ± 0.535 % of dose and the “Ae0–24 h (dose excreted in the 24-h urine)” value ([1]; G-ARF rats, oral 20 mg/kg) was 4.82 ± 3.06 % of dose. For the same molecule, the “decrease of Ae0–24 h versus control rats” value ([1]; G-ARF rats, oral 20 mg/kg) was 22.4%, the “decrease of CLR versus control rats” value ([1]; G-ARF rats, oral 20 mg/kg) was 69.8% and the “increase of AUC versus control rats” value ([1]; G-ARF rats, oral 20 mg/kg) was 142%. The “increase of Cmax versus control rats” value ([1]; G-ARF rats, oral 20 mg/kg) was 198%, the “GI24 h (dose remaining in the gastrointestinal tract at 24 h)” value ([1]; G-ARF rats, oral 20 mg/kg, 20 mg/kg) was 1.27 % of dose and 1.27 ± 1.72 % of dose and the AUC [1, 7] was 12500 ng·h/mL. The Tmax [1, 7] was 41.3 min, the CL renal [1, 7] was 0.3 ± 0.495 mL/min/kg and the Cmax ([1]; Sprague-Dawley, rat, plasma, po, 20 mg/kg, C-ARF rats, read-out: Cmax) was 4200 ± 3030 ng/mL. It also gave a bioavailability [1, 7] of 54.3%, an AUC [1, 8] of 8750 ng·h/mL and a Tmax [1, 8] of 30.8 min. For the same molecule, the CL renal [1, 8] was 1.71 ± 0.871 mL/min/kg, the Cmax ([1]; Sprague-Dawley, rat, plasma, po, 20 mg/kg, G-ARF rats, read-out: Cmax) was 5180 ± 2590 ng/mL and the bioavailability [1, 8] was 60.7%. It also gave an AUC [1, 9] of 3620 ng·h/mL, a Tmax [1, 9] of 71.9 min and a CL renal [1, 9] of 5.66 ± 1.03 mL/min/kg. For the same molecule, the bioavailability [1, 9] was 41.3%, the GI24 h ([1]; across control, G-ARF and C-ARF rats, oral 20 mg/kg) was “less than 1.27 % of oral dose” and the Cmax ([1]; control rats, oral 20 mg/kg) was 1740 ± 606 ng/mL. The “Ae0–24 h (dose excreted in the 24-h urine)” value [1, 10] was 6.21 % of dose and 6.21 ± 1.12 % of dose, the “GI24 h (dose remaining in the gastrointestinal tract at 24 h)” value [1, 10] was 0.231 % of dose and 0.231 ± 0.235 % of dose and the “free fractions in the plasma, comparison of groups” value (plasma proteins [2]) was “comparable”. For the same molecule, the half-life ([3]; healthy volunteers, oral 10 mg) was 192 min, the “oral dose bound to plasma protein” value ([3]; healthy volunteers, oral 10 mg) was “Approximately 40%” and the volume of distribution ([3]; healthy volunteers, oral 10 mg) was 87 L. The “Absolute oral bioavailability (F)” value ([3]; human) was “approximately 74%”, the “Ae0–24 h (dose excreted in the 24-h urine)” value ([4]; C-ARF rats, iv 10 mg/kg) was 0.458 ± 0.626 % of dose and the “GI24 h (dose remaining in the gastrointestinal tract at 24 h)” value ([4]; C-ARF rats, iv 10 mg/kg) was 0.195 ± 0.157 % of dose. For the same molecule, the “decrease of Ae0–24 h versus control rats” value ([4]; C-ARF rats, iv 10 mg/kg) was 95.2%, the “decrease of CL versus control rats” value ([4]; C-ARF rats, iv 10 mg/kg) was 62.3% and the “decrease of CLNR versus control rats” value ([4]; C-ARF rats, iv 10 mg/kg) was 57.4%. The “decrease of CLR versus control rats” value ([4]; C-ARF rats, iv 10 mg/kg) was 98.6%, the “increase of AUC versus control rats” value ([4]; C-ARF rats, iv 10 mg/kg) was 163% and the “increase of MRT versus control rats” value ([4]; C-ARF rats, iv 10 mg/kg) was 154%. For the same molecule, the “increase of terminal half-life versus control rats” value ([4]; C-ARF rats, iv 10 mg/kg) was 240%, the “CLR estimated from free (unbound to plasma proteins) fractions in plasma” value ([4]; C-ARF rats, iv 10 mg/kg) was 0.0856 mL/min/kg and the “Ae0–24 h (dose excreted in the 24-h urine)” value ([4]; G-ARF rats, iv 10 mg/kg) was 5.92 ± 2.76 % of dose. For the same molecule, the “GI24 h (dose remaining in the gastrointestinal tract at 24 h)” value ([4]; G-ARF rats, iv 10 mg/kg) was 0.00919 ± 0.0225 % of dose, the “decrease of Ae0–24 h versus control rats” value ([4]; G-ARF rats, iv 10 mg/kg) was 37.7% and the “decrease of CL versus control rats” value ([4]; G-ARF rats, iv 10 mg/kg) was 37.7%. For the same molecule, the “decrease of CLNR versus control rats” value ([4]; G-ARF rats, iv 10 mg/kg) was 33.2%, the “decrease of CLR versus control rats” value ([4]; G-ARF rats, iv 10 mg/kg) was 69.5% and the “increase of AUC versus control rats” value ([4]; G-ARF rats, iv 10 mg/kg) was 64.0%. The “increase of MRT versus control rats” value ([4]; G-ARF rats, iv 10 mg/kg) was 96.7%, the “increase of terminal half-life versus control rats” value ([4]; G-ARF rats, iv 10 mg/kg) was 78.7% and the “CLR estimated from free (unbound to plasma proteins) fractions in plasma” value ([4]; G-ARF rats, iv 10 mg/kg) was 1.83 mL/min/kg. The MRT ([4]; C-ARF rats) was 69.1 min, the clearance ([4]; C-ARF rats) was 14.7 ± 2.29 mL/min/kg and the CL renal ([4]; C-ARF rats) was 0.0679 ± 0.0917 mL/min/kg. The half-life ([4]; C-ARF rats) was 134 ± 40.9 min, the Vd ([4]; C-ARF rats) was 1 ± 0.558 L/kg and the AUC ([4]; C-ARF rats) was 11600 ng·h/mL. It also gave an MRT ([4]; G-ARF rats) of 53.5 min, a clearance ([4]; G-ARF rats) of 24.3 ± 6.95 mL/min/kg and a CL renal ([4]; G-ARF rats) of 1.45 ± 1.54 mL/min/kg. The half-life ([4]; G-ARF rats) was 70.4 ± 29.6 min, the Vd ([4]; G-ARF rats) was 1.17 ± 0.519 L/kg and the AUC ([4]; G-ARF rats) was 7220 ng·h/mL. It also gave an MRT ([4]; control rats) of 27.2 min, a clearance ([4]; control rats) of 39 ± 7.97 mL/min/kg and a half-life ([4]; control rats) of 39.4 ± 11.3 min. For the same molecule, the Vd ([4]; control rats) was 1.04 ± 0.402 L/kg, the AUC ([4]; control rats) was 4400 ng·h/mL and the “Ae0–24 h (dose excreted in the 24-h urine)” value ([4]; control rats, iv 10 mg/kg) was 9.51 ± 0.879 % of dose. For the same molecule, the “CLR (time-averaged renal clearance)” value ([4]; control rats, iv 10 mg/kg) was 4.75 ± 1.28 mL/min/kg, the “GI24 h (dose remaining in the gastrointestinal tract at 24 h)” value ([4]; control rats, iv 10 mg/kg) was 0.153 ± 0.306 % of dose and the “CLR estimated from free (unbound to plasma proteins) fractions in plasma” value ([4]; control rats, iv 10 mg/kg) was 5.99 mL/min/kg. The “decrease of Vmax for the disappearance of tofacitinib versus control rats” value (hepatic microsomes; hepatic microsomes of C-ARF rats, not significantly different) was 28.7%, the “decrease of CLint for the disappearance of tofacitinib versus control rats” value (hepatic microsomes; hepatic microsomes of C-ARF rats, significantly lower) was 54.4% and the “decrease of CLint for the disappearance of tofacitinib versus control rats” value (hepatic microsomes; [11]) was 31.1%. The “decrease of Vmax for the disappearance of tofacitinib versus control rats” value (hepatic microsomes; [11]) was 9.52%, the “Km values, comparison of groups” value (hepatic microsomes; hepatic microsomes of control, G-ARF and C-ARF rats) was “comparable among the three groups” and the plasma protein binding (plasma proteins [5]) was 20.7%. For the same molecule, the “dose proportionality of AUCs” value [6] was “not dose proportional”.

Source: PMC7464785 (Pharmaceutics, 2020)
